Assay results: BigSolDB 2.1

O=C(O)c1ccccc1C(=O)O
Settings | solubility (mole fraction)
in DMAc, 295.05 K | 0.163
in DMAc, 296.15 K | 0.168
in DMAc, 298.35 K | 0.18
in DMAc, 301.15 K | 0.193
in DMAc, 302.95 K | 0.201
in DMAc, 305.05 K | 0.211
in DMAc, 306.35 K | 0.22
in DMAc, 308.15 K | 0.229
in DMAc, 309.25 K | 0.238
in DMAc, 310.65 K | 0.249
in DMAc, 312.15 K | 0.258
in DMAc, 313.15 K | 0.268
in DMAc, 314.35 K | 0.276
in DMAc, 316.05 K | 0.286
in DMAc, 316.65 K | 0.295
in DMAc, 318.15 K | 0.305
in DMAc, 319.15 K | 0.314
in DMAc, 321.15 K | 0.323
in DMAc, 323.15 K | 0.334
in DMAc, 325.05 K | 0.343
in DMAc, 326.85 K | 0.353
in DMAc, 328.15 K | 0.362
in DMAc, 329.35 K | 0.373
in DMAc, 330.35 K | 0.381
in DMAc, 331.25 K | 0.389
in DMAc, 331.95 K | 0.396
in DMAc, 333.15 K | 0.405
in DMAc, 333.95 K | 0.415
in DMAc, 334.95 K | 0.427
in DMF, 304.15 K | 0.399
in DMF, 309.15 K | 0.42
in DMF, 311.05 K | 0.426
in DMF, 314.65 K | 0.435
in DMF, 316.75 K | 0.441
in DMF, 319.15 K | 0.446
in DMF, 323.35 K | 0.464
in DMF, 326.15 K | 0.476
in DMF, 328.65 K | 0.481
in DMF, 330.75 K | 0.491
in DMF, 332.45 K | 0.499
in DMF, 335.35 K | 0.509
in DMF, 338.25 K | 0.516
in DMF, 342.15 K | 0.528
in DMSO, 291.55 K | 0.333
in DMSO, 304.25 K | 0.344
in DMSO, 306.25 K | 0.348
in DMSO, 309.65 K | 0.352
in DMSO, 313.65 K | 0.354
in DMSO, 317.25 K | 0.357
in DMSO, 321.65 K | 0.362
in DMSO, 324.15 K | 0.364
in DMSO, 328.15 K | 0.368
in DMSO, 331.35 K | 0.37
in DMSO, 335.15 K | 0.373
in DMSO, 339.65 K | 0.378
in DMSO, 342.15 K | 0.38
in NMP, 293.55 K | 0.0649
in NMP, 298.35 K | 0.0801
in NMP, 303.25 K | 0.0925
in NMP, 305.15 K | 0.0988
in NMP, 307.95 K | 0.105
in NMP, 310.15 K | 0.116
in NMP, 314.05 K | 0.128
in NMP, 319.25 K | 0.147
in NMP, 321.65 K | 0.158
in NMP, 325.15 K | 0.173
in NMP, 327.25 K | 0.184
in NMP, 330.15 K | 0.202
in NMP, 333.25 K | 0.219
in acetonitrile, 296.95 K | 0.0247
in acetonitrile, 302.05 K | 0.0282
in acetonitrile, 308.25 K | 0.0323
in acetonitrile, 314.65 K | 0.0367
in acetonitrile, 318.35 K | 0.039
in acetonitrile, 321.15 K | 0.0402
in acetonitrile, 323.35 K | 0.0417
in acetonitrile, 325.15 K | 0.0429
in acetonitrile, 327.15 K | 0.0443
in acetonitrile, 329.15 K | 0.0457
in acetonitrile, 330.95 K | 0.048
in acetonitrile, 332.75 K | 0.0491
in acetonitrile, 334.35 K | 0.0504
in n-methylformamide, 294.35 K | 0.184
in n-methylformamide, 298.95 K | 0.19
in n-methylformamide, 303.35 K | 0.196
in n-methylformamide, 307.35 K | 0.201
in n-methylformamide, 311.15 K | 0.203
in n-methylformamide, 315.35 K | 0.207
in n-methylformamide, 318.95 K | 0.211
in n-methylformamide, 323.15 K | 0.216
in n-methylformamide, 327.95 K | 0.221
in n-methylformamide, 334.35 K | 0.229
in propionic acid, 298.75 K | 0.00308
in propionic acid, 306.65 K | 0.00404
in propionic acid, 312.15 K | 0.00478
in propionic acid, 316.15 K | 0.00524
in propionic acid, 320.65 K | 0.00579
in propionic acid, 323.65 K | 0.00642
in propionic acid, 327.75 K | 0.00704
in propionic acid, 331.35 K | 0.0079
in propionic acid, 335.15 K | 0.00876
in propionic acid, 338.75 K | 0.00983

Cc1ccccc1C(=O)O
Settings | solubility (mole fraction)
in DMAc, 307.65 K | 0.0781
in DMAc, 309.65 K | 0.0831
in DMAc, 311.25 K | 0.0866
in DMAc, 313.15 K | 0.0964
in DMAc, 314.35 K | 0.106
in DMAc, 317.65 K | 0.121
in DMAc, 320.25 K | 0.133
in DMAc, 321.85 K | 0.143
in DMAc, 325.25 K | 0.168
in DMAc, 327.55 K | 0.187
in DMAc, 330.25 K | 0.21
in DMAc, 332.65 K | 0.231
in DMAc, 334.35 K | 0.248
in DMAc, 336.15 K | 0.264
in DMAc, 337.35 K | 0.28
in DMAc, 338.95 K | 0.291
in DMAc, 340.35 K | 0.309
in DMAc, 341.15 K | 0.327
in DMAc, 342.05 K | 0.344
in DMAc, 343.15 K | 0.362
in DMAc, 344.35 K | 0.384
in DMF, 291.15 K | 0.329
in DMF, 295.85 K | 0.342
in DMF, 299.95 K | 0.357
in DMF, 303.75 K | 0.371
in DMF, 307.65 K | 0.39
in DMF, 311.55 K | 0.407
in DMF, 315.55 K | 0.423
in DMF, 319.45 K | 0.445
in DMF, 323.15 K | 0.461
in DMF, 327.25 K | 0.481
in DMF, 331.35 K | 0.498
in DMSO, 294.05 K | 0.497
in DMSO, 299.65 K | 0.514
in DMSO, 302.95 K | 0.523
in DMSO, 306.35 K | 0.534
in DMSO, 308.35 K | 0.537
in DMSO, 310.85 K | 0.542
in DMSO, 313.15 K | 0.548
in DMSO, 315.15 K | 0.557
in DMSO, 319.65 K | 0.57
in DMSO, 323.65 K | 0.581
in DMSO, 327.65 K | 0.591
in DMSO, 330.05 K | 0.6
in DMSO, 332.15 K | 0.608
in DMSO, 334.55 K | 0.617
in NMP, 288.95 K | 0.449
in NMP, 292.95 K | 0.455
in NMP, 296.95 K | 0.471
in NMP, 300.65 K | 0.49
in NMP, 304.65 K | 0.499
in NMP, 308.65 K | 0.51
in NMP, 312.65 K | 0.518
in NMP, 316.65 K | 0.531
in NMP, 321.35 K | 0.542
in NMP, 326.35 K | 0.559
in acetonitrile, 299.15 K | 0.314
in acetonitrile, 300.25 K | 0.316
in acetonitrile, 302.95 K | 0.323
in acetonitrile, 305.55 K | 0.329
in acetonitrile, 310.65 K | 0.34
in acetonitrile, 314.35 K | 0.346
in acetonitrile, 315.45 K | 0.35
in acetonitrile, 319.25 K | 0.36
in acetonitrile, 322.65 K | 0.369
in acetonitrile, 325.55 K | 0.378
in acetonitrile, 329.15 K | 0.386
in acetonitrile, 331.75 K | 0.393
in acetonitrile, 335.15 K | 0.401
in acetonitrile, 338.15 K | 0.409
in n-methylformamide, 294.95 K | 0.276
in n-methylformamide, 298.15 K | 0.286
in n-methylformamide, 303.65 K | 0.303
in n-methylformamide, 307.95 K | 0.32
in n-methylformamide, 312.95 K | 0.343
in n-methylformamide, 318.05 K | 0.365
in n-methylformamide, 322.35 K | 0.379
in n-methylformamide, 326.15 K | 0.392
in n-methylformamide, 330.15 K | 0.407
in n-methylformamide, 334.35 K | 0.434
in propionic acid, 296.35 K | 0.155
in propionic acid, 300.35 K | 0.179
in propionic acid, 303.65 K | 0.198
in propionic acid, 307.65 K | 0.212
in propionic acid, 311.25 K | 0.232
in propionic acid, 314.85 K | 0.253
in propionic acid, 318.35 K | 0.273
in propionic acid, 322.45 K | 0.301
in propionic acid, 326.05 K | 0.334
in propionic acid, 330.25 K | 0.363
in propionic acid, 334.15 K | 0.397
